# Assay results taken from patent US7205307B2, “Pyrimidines as novel openers of potassium ion channels” (Icagen, Inc., priority 2002, dated 2007).
# System: voltage gated K+ channels
# Test: test assay chosen for cells expressing voltage gated K+ channels (opening of voltage-gated potassium channels)
# Assay type: cell-based
# Details: relative potency
# Experimental: Utilizing screening assays such as described above, compounds of the invention were tested for their ability to open voltage-gated potassium channels. The results of these assays are set forth in Table 1 in which the data are presented in terms of relative potency of the compounds tested to one another.
# This example illustrates screening protocols for evaluating putative potassium channel agonists for the ability to open voltage-gated potassium channels.
# NG108-15 cells, a mouse neuroblastoma, rat glioma hybrid cell line, functionally express M-currents (Robbins et al., J. Physiol. 451: 159–85 (1992). NG108-15 M-currents are likely comprised, at least in part, of KCNQ2, KCNQ3 and KCNQ5, since these genes are reportedly robustly expressed in differentiated NG108-15 cells (Selyanko et al., J. Neurosci. 19(18): 7742–56 (1999); Schroeder et al., J. Biol. Chem. 275(31): 24089–95 (2000)) and KCNQ3 dominant- negative constructs reduce M-current density in these cells (Selyanko et al., J. Neurosci. 22(5): RC212 (2002).
# NG108–15 are maintained in DMEM (high glucose) supplemented with 10% fetal bovine serum, 0.05 mM pyridoxine, 0.1 mM hypoxanthine, 400 nM aminopterin, […] thymidine, 50 μgml^−1 gentamycin and 10 mM HEPES, in an incubator at 37° C. with a humidified atmosphere of 5% CO2. Cells are plated in 96 well plates and are differentiated by addition of 10 μM PGE1 and 50 μM isomethylbutylxanthine to the growth media prior to study.
# Differentiated NG108–15 cells are loaded with voltage-sensitive dye by incubation in Earls Balanced Salt Solution (EBSS) containing […] DiBAC for 1 h. Following loading, drug solution containing […] DiBAC is added to each well. Changes in fluorescence are measured every 30 s for 25 min. The maximum change in fluorescence is measured and can be expressed as a percentage of the maximum response obtained in the presence of a positive control agent.
# Alternatively, cells expressing voltage-gated K^+ channels, such as KCNQ2-like channels can be loaded with ^86Rb^+ by culture in media containing ^86RbCl. Following loading, culture media is removed and the cells are washed in EBSS to remove residual traces of ^86Rb^+. Cells are preincubated with drug (0.01–30 μM in EBSS) and then ^86Rb^+ efflux is stimulated by exposing cells to EBSS solution supplemented with a sub-maximal concentration of KCl (generally 7–20 mM) in the continued presence of drug. After a suitable efflux period, the EBSS/KCl solution is removed from the cells and the ^86Rb^+ content can be determined by Cherenkov counting (Wallac Trilux). Cells are then lysed with a SDS solution and the ^86Rb^+ content of the lysate can be determined. Percent ^86Rb^+ efflux is calculated according to: (^86Rb^+ content in EBSS/(^86Rb^+ content in EBSS+^86Rb^+ content of the lysate))*100
# Efflux is normalized to the maximal ^86Rb^+ efflux (i.e., that which can be induced by a high concentration of KCl, generally 30–135 mM).
row,EC50,SMILES
1,500 to 1000 nM,"O=C(Nc1cnc(Cl)nc1)c1ccc(F)c(F)c1 [Compound 4, N-(2-Chloro-pyrimidin-5-yl)-3,4-difluoro-benzamide]"
2,1000 to 10000 nM,"O=C(Nc1cnc(Cl)nc1)c1cccc(Cl)c1 [Compound 5, 3-Chloro-N-(2-chloro-pyrimidin-5-yl)-benzamide]"
3,500 to 1000 nM,"Cc1ccc(C(=O)Nc2cnc(Cl)nc2)cc1F [Compound 90, N-(2-Chloro-pyrimidin-5-yl)-3-fluoro-4-methyl-benzamide]"
4,< 500 nM,"O=C(Nc1cnc(Cl)nc1)c1ccc(Cl)c(F)c1 [Compound 44, 4-Chloro-N-(2-chloro-pyrimidin-5-yl)-3-fluoro-benzamide]"
5,500 to 1000 nM,"O=C(Nc1cnc(Cl)nc1)c1ccc(Cl)s1 [Compound 20, 5-Chloro-thiophene-2-carboxylic acid (2-chloro-pyrimidin-5-yl)-amide]"
6,1000 to 10000 nM,"Cc1ncc(NC(=O)c2ccc(F)c(F)c2)cn1 [Compound 8, 3,4-difluoro-N-(2-methyl-pyrimidin-5-yl)-benzamide]"
7,1000 to 10000 nM,"O=C(Nc1cnc(Cl)nc1)c1cccc(C(F)(F)F)c1 [Compound 3, N-(2-chloro-pyrimidin-5-yl)-3-trifluoromethyl-benzamide]"
8,1000 to 10000 nM,"CC(C)S(=O)(=O)c1ccc(C(=O)Nc2cnc(Cl)nc2)cc1F [Compound 91, N-(5-amino-2-chloro-pyrimidine)-3-fluoro-4-(propane-2-sulfonyl)-benzamide]"
9,1000 to 10000 nM,"O=C(Nc1cnc(Cl)nc1)c1cccc(F)c1 [Compound 9, N-(2-chloro-pyrimidin-5-yl)-3-fluoro-benzamide]"
